Assay results as given in patent US20030206953A1, “Aggregates of spherical multivalent metal alginate microparticles and methods of making them” (priority 1997, published 2003).
In brackets after ≈: the same amount, converted by molar mass.

Experiments:
[1] = physchem; details: 20 °C, water, thermodynamic from solid
Procedure: (§1) As used herein, the term “solubility” in accordance with the Japanese Pharmacopoeia (the 13th Amendment) refers to the degree of dissolution of a medicament in a solvent within 30 minutes when 1 g of the medicament is added to the solvent and mixing them with vigorous shaking at intervals of 5 minutes at 20° C.±5° C. In the present specification, the solubility is evaluated in accordance with this method. When the amount (ml) of water required to dissolve 1 g of a medicament is 30 ml or more, the solubility of the medicament represents the grades of “slightly soluble” or “hardly soluble”.

[2] = Solubility in water per Japanese Pharmacopoeia (13th Amendment); details: 20 °C, thermodynamic from solid
Procedure: as §1

[3] = Dissolution test, paddle method, second solution (artificial intestinal juice, pH 6.8); format: physicochemical; details: artificial intestinal juice (second solution, pH 6.8); within two hours; FIG. 3
Source text: As used herein, the term “artificial intestinal juice (the second solution, pH 6.8)” refers to a phosphate buffer of pH 6.8 as described in the Japanese Pharmacopoeia (the 13th Amendment), the section of dissolution test, the second method (paddle method). As used herein, the term “dissolution rate” refers to a value given by dividing the actual elution concentration of a slightly soluble medicament by the calculated elution concentration and expressing the resultant value as a percent. Here, the term “calculated elution concentration” refers to the concentration given when hypothesizing that the entire slightly soluble medicament added to the second solution is dissolved. For example, the calculated elution concentration of a slightly soluble medicament given when 5 g of the medicament is added to 500 ml of the second solution is 10 mg/ml. In this case, when the actual elution concentration is 5 mg/ml, the dissolution rate is 50%.
In general, the dissolution rate of a slightly soluble medicament by itself is slow in the artificial intestinal juice, and the saturated dissolution amount is small. Therefore, the saturated dissolution concentration tends to be smaller than the calculated concentration. […]

solubility at 30 min [1] [µg/mL] | solubility at 30 min [2] [µg/mL] | dissolution rate [3] | Compound
13100 (≈ 86.7 mM) | – | – | CC(=O)Nc1ccc(O)cc1 [Acetaminophen, acetaminophen]
– | 3630 (≈ 20.1 mM) | – | CC(=O)Oc1ccccc1C(=O)O [Aspirin, aspirin]
– | < 100 | – | CCOc1ccccc1C(N)=O [Ethenzamide]
< 100 | – | less than 40% | COc1ccc2c(c1)c(CC(=O)O)c(C)n2C(=O)c1ccc(Cl)cc1 [Indomethacin, indomethacin]
